# Data as given in article PMC7012052, “Discovery of antimicrobial compounds targeting bacterial type FAD synthetases” (Journal of Enzyme Inhibition and Medicinal Chemistry, 2017).
# Where two headings read alike, the source gives them in different places. Marks after values point to notes of the source that are not given here.
# What was measured:
# CaFADS RFK activity = biological target: T1, CaFADS RFK activity (Corynebacterium ammoniagenes, UniProt Q59263); experiment: RFK activity of CaFADS in the presence of HTS hits (flavins separated by HPLC); type: biochemical; conditions: pH 7, read-out: % Residual RFK activity
# T1 construct: Recombinant CaFADS was overexpressed in BL21 (DE3) E. coli cells and purified as previously described; made in house; host or cells: E. coli BL21 (DE3)
# Description: (§1) Then, the RFK and FMNAT reactions were individually assayed in the presence of the HTS hits at 25 °C. Reaction mixtures contained 50 µM ATP, 5 µM RF, 0.4 µM CaFADS in 20 mM PIPES, pH 7.0, 0.8 mM MgCl2, when assaying the RFK activity, and 50 µM ATP, 10 µM FMN, 0.4 µM CaFADS in 20 mM PIPES, pH 7.0, 10 mM MgCl2 when measuring the FMNAT reaction. […] Finally, reactions were stopped by boiling the samples at 100 °C for 5 min, and the precipitated protein was eliminated through centrifugation. The transformation of RF into FMN or FAD was evaluated through flavins separation by HPLC, as previously described. […] When assaying the HTS hits against the FMNAT activity of SpnFADS, similar conditions were used but samples contained 3 mM sodium dithionite to maintain the flavin in its reduced state. Data were processed as previously reported. All the experiments were performed in triplicate.
# CaFADS FMNAT activity = biological target: T2, CaFADS FMNAT activity (Corynebacterium ammoniagenes, UniProt Q59263); experiment: FMNAT activity of CaFADS: residual activity, IC50, inhibition mechanism (HPLC); type: biochemical; conditions: for Inhibition mechanism / Ki: CaFADS FMNAT; for Ki: global Lineweaver–Burk fit; for remaining activity at 250 µM: pH 7, read-out: % Residual FMNAT activity; for remaining activity at 50 µM: read-out: Residual activity (FMNAT)
# T2 construct: Recombinant CaFADS was overexpressed in BL21 (DE3) E. coli cells and purified as previously described; made in house; host or cells: E. coli BL21 (DE3)
# Description: as §1
# (§2) Experiments were performed and analysed through HPLC as described above. Positive controls (without any hit compound) were included in every reaction set. DMSO concentration was kept at 2.5% in all samples. All the experiments were performed in triplicate.
# All the experiments were carried out in 20 mM PIPES, 10 mM MgCl2, pH 7.0, 2.5% DMSO at 25 °C, being the final reaction volume 500 µl. The reactions were initiated by addition of CaFADS at a final concentration of ∼40 nM, followed by 1 min incubation. The flavin composition of the supernatant was analysed as previously described. All the experiments were performed in triplicate. The effect of the inhibitors on Km and Vmax was determined by fitting the data sets to the Michaelis–Menten model. Additionally, data were globally fit to Lineweaver–Burk equations for competitive, uncompetitive, non-competitive or mixed inhibition, yielding Ki, as well as Ki′ when applying, for each compound (Equations (1–4), respectively).
# CaFADS = biological target: T3, CaFADS (Corynebacterium ammoniagenes, UniProt Q59263); experiment: Isothermal titration calorimetry (ITC) of hits binding to CaFADS; conditions: ITC 25 °C
# T3 construct: Recombinant CaFADS was overexpressed in BL21 (DE3) E. coli cells and purified as previously described; made in house; host or cells: E. coli BL21 (DE3)
# Description: ITC experiments were performed to characterise the protein’s affinity for the selected compounds, as also the thermodynamic parameters that drive the interaction. Experiments were carried out in an AutoITC200 (MicroCal) thermostated at 25 °C. In these experiments, ∼400 µM of each compound were used to titrate ∼25 µM CaFADS contained in a 200 µL cell. However, when saturation of the protein was not reached, higher concentrations of compounds were employed. The titrations were performed by stepwise injections of the titrating compound. Up to 19 injections of 2 µl were added to the cell sample and mixed using a 1000 rpm stirrer syringe. The compounds and the protein were dissolved in 20 mM PIPES, pH 7.0, 10 mM MgCl2 and degassed prior to titration. DMSO was added to the protein and ligand samples, until reach a final concentration of 3%. The association constant (Ka), the enthalpy variation (ΔH) and the binding stoichiometry (N), were obtained through non-lineal regression of the data to a model for one or two independent binding sites, implemented in Origin 7.0 (OriginLab) as previously described[27]^,[29]. The entropic contribution (−TΔS), the Gibbs free energy (ΔG) and the dissociation constant (Kd) were obtained through essential thermodynamic equations.
# SpnFADS FMNAT activity = SpnFADS FMNAT activity (Streptococcus pneumoniae, UniProt A0A0H2UPY5); experiment: biochemical
# Description: as §1, §2
# SpnFADS RFK activity = SpnFADS RFK activity (Streptococcus pneumoniae, UniProt A0A0H2UPY5); experiment: biochemical; conditions: for IC50: compounds assayed 0–100 μM, 25 °C
# Description: as §1, §2
# [1] = tested on: C. ammoniagenes ATCC 6872; experiment: MIC by resazurin microplate assay (broth microdilution); type: cell-based, Corynebacterium ammoniagenes; conditions: Corynebacterium ammoniagenes, ATCC6872, 16 h
# [2] = tested on: M. tuberculosis ATCC 27,294; experiment: as above; type: cell-based, Mycobacterium tuberculosis
# S. pneumoniae ATCC 49619 = experiment: as above; type: cell-based, Streptococcus pneumoniae
# [3] = saturating ATP (regarding the FMN substrate)
# [4] = saturating FMN (regarding the ATP substrate)
# [5] = saturating ATP, varying FMN, inhibitor 0.2 μM
# [6] = saturating ATP, varying FMN, inhibitor […]
# [7] = saturating FMN, varying ATP, inhibitor 0.2 μM
# [8] = saturating FMN, varying ATP, inhibitor 0.4 μM
# [9] = saturating FMN, varying ATP, inhibitor […]
# [10] = for 24: Site 1–2, average value where N ≈ 2
# [11] = read-out: RFK activity Res. activity
# SpnFADS FMNAT activity, sequence (A0A0H2UPY5 entry or part of it): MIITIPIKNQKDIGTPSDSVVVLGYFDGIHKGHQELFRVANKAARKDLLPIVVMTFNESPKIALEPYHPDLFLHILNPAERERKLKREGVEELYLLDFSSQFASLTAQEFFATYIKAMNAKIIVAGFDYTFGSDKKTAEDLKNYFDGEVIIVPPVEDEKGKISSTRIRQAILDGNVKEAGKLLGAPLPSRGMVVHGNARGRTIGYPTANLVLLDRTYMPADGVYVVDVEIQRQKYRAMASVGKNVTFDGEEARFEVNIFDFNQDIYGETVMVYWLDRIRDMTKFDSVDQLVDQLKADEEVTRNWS
# SpnFADS RFK activity, sequence (A0A0H2UPY5 entry or part of it): as above
# T2 sequence (Q59263 whole entry): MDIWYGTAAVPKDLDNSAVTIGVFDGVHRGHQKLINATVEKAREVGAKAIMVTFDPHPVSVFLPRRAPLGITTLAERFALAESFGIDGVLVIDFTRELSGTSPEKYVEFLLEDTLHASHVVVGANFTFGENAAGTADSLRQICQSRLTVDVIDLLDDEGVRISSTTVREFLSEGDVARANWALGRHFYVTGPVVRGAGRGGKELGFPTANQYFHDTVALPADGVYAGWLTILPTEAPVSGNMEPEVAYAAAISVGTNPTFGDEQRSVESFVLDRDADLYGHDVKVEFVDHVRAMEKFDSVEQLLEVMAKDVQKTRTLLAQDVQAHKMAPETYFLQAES
# T3 sequence (Q59263 whole entry): as above
# T1 sequence (Q59263 whole entry): as above
SMILES,remaining activity at 250 µM (CaFADS RFK activity) [%],IC50 (CaFADS FMNAT activity) [nM],Inhibition mechanism (CaFADS FMNAT activity; [3]),Inhibition mechanism (CaFADS FMNAT activity; [4]),"Ki (CaFADS FMNAT activity; saturating ATP, varying FMN) [nM]","Ki (CaFADS FMNAT activity; saturating FMN, varying ATP) [nM]",remaining activity at 250 µM (CaFADS FMNAT activity) [%],remaining activity at 50 µM (CaFADS FMNAT activity) [%],apparent kcat (CaFADS FMNAT activity; [5]) [s⁻¹],apparent kcat (CaFADS FMNAT activity; [6]) [s⁻¹],apparent kcat (CaFADS FMNAT activity; [7]) [s⁻¹],apparent kcat (CaFADS FMNAT activity; [8]) [s⁻¹],apparent kcat (CaFADS FMNAT activity; [9]) [s⁻¹],"N (binding stoichiometry) (CaFADS; 3% DMSO, for 24: Site 1–2)",ΔG (CaFADS; [10]),ΔH (CaFADS; [10]),−TΔS (CaFADS; [10]),further results
"COc1cc(-c2ccc(/N=N/c3ccc4c(S(=O)(=O)O)cc(S(=O)(=O)O)c(N)c4c3O)c(OC)c2)ccc1/N=N/c1ccc2c(S(=O)(=O)O)cc(S(=O)(=O)O)c(N)c2c1O [HTS hit 24, Chicago sky blue 6B]",≥ 75,400 ± 100,Non-competitive,Uncompetitive,70 ± 10,80 ± 30,≤ 5,3.6 ± 0.2,0.163 ± 0.0217,0.405 ± 0.0683,0.0717 ± 0.0067,0.03 ± 0.0017,0.12 ± 0.0067,≈ 2,−8.1 ± 1.0^a kcal/mol,−4.2 ± 0.5^a kcal/mol,−3.9 ± 0.5^a kcal/mol,"apparent kcat (CaFADS FMNAT activity; saturating ATP, varying FMN, inhibitor 0.4 μM): 0.0933 ± 0.01 s⁻¹; apparent kcat (CaFADS FMNAT activity; saturating ATP, varying FMN, inhibitor 0.6 μM): 0.095 ± 0.0217 s⁻¹; apparent kcat (CaFADS FMNAT activity; saturating FMN, varying ATP, inhibitor 0.04 μM): 0.375 ± 0.08 s⁻¹; ΔG (CaFADS; Site 3): -5.2 ± 0.7 kcal/mol; ΔH (CaFADS; Site 3): 18.4 ± 2.2 kcal/mol; −TΔS (CaFADS; Site 3): -23.6 ± 1.9 kcal/mol; N (binding stoichiometry) (CaFADS; Site 3 (low affinity site)): ≈ 1; Kd (CaFADS; Kd, 3% DMSO, for 24: Site 1–2, average value for two hit molecules where N ≈ 2): 1100 ± 100 nM; Kd (CaFADS; Kd, Site 3 (low affinity site)): 161000 ± 20000 nM; activity at 100 µM (SpnFADS FMNAT activity; SpnFADS, 100 μM of each compound, 25 °C, n = 3, mean ± SD, read-out: FMNAT activity Res. activity): 0%; IC50 (SpnFADS FMNAT activity; SpnFADS, compounds assayed 0–100 μM, 25 °C, read-out: FMNAT activity IC50): 70000 ± 6000 nM; IC50 (SpnFADS RFK activity; SpnFADS, read-out: RFK activity IC50): > 100000 nM; activity at 100 µM (SpnFADS RFK activity; [11]): 84 ± 9%; MIC ([1]; read-out: Minimal inhibitory concentration (MIC) C. ammoniagenes): 16 to 32 µM; MIC ([2]; Mycobacterium tuberculosis, ATCC27, 144 h; read-out: Minimal inhibitory concentration (MIC) M. tuberculosis): 16 to 32 µM; MIC (S. pneumoniae ATCC 49619; Streptococcus pneumoniae, ATCC49619, 10 h; read-out: Minimal inhibitory concentration (MIC) S. pneumoniae): > 64 µM"
"Cc1cc2c(C(C)C)c(O)c(O)c(C=O)c2c(O)c1-c1c(C)cc2c(C(C)C)c(O)c(O)c(C=O)c2c1O [HTS hit 27, gossypol]",≥ 75,500 ± 100,Non-competitive,Competitive,80 ± 10,60 ± 10,≤ 5,6.9 ± 0.8,0.252 ± 0.025,0.167 ± 0.013,0.37 ± 0.0233,0.302 ± 0.0267,0.285 ± 0.055,≈ 2,−8.4 ± 0.9^a kcal/mol,−3.1 ± 0.1^a kcal/mol,−5.3 ± 0.4^a kcal/mol,"apparent kcat (CaFADS FMNAT activity; saturating ATP, varying FMN, inhibitor 0.05 μM): 0.36 ± 0.0483 s⁻¹; apparent kcat (CaFADS FMNAT activity; saturating ATP, varying FMN, inhibitor 0.1 μM): 0.268 ± 0.0283 s⁻¹; apparent kcat (CaFADS FMNAT activity; saturating ATP, varying FMN, inhibitor 1 μM): 0.108 ± 0.0033 s⁻¹; apparent kcat (CaFADS FMNAT activity; saturating FMN, varying ATP, inhibitor 0.1 μM): 0.38 ± 0.0217 s⁻¹; apparent kcat (CaFADS FMNAT activity; saturating FMN, varying ATP, inhibitor 1 μM): 0.208 ± 0.0083 s⁻¹; Kd (CaFADS; 3% DMSO, for 24: Site 1–2, average value for two hit molecules where N ≈ 2, read-out: Kd): 700 ± 70 nM; IC50 (SpnFADS FMNAT activity): 51000 ± 6000 nM; remaining activity at 100 µM (SpnFADS FMNAT activity; read-out: FMNAT activity Res. activity): 0%; IC50 (SpnFADS RFK activity; RFK activity IC50, SpnFADS): 6000 ± 1000 nM; remaining activity at 100 µM (SpnFADS RFK activity; [11]): 25 ± 4%; MIC ([1]; read-out: Minimal inhibitory concentration (MIC) C. ammoniagenes, assayed 0.125–64 μM, 16 h at 37 °C, BHI): ~64 µM; MIC ([2]; Mycobacterium tuberculosis, ATCC27, 144 h, read-out: Minimal inhibitory concentration (MIC) M. tuberculosis): > 64 µM; MIC (S. pneumoniae ATCC 49619; Streptococcus pneumoniae, ATCC49619, 10 h, read-out: Minimal inhibitory concentration (MIC) S. pneumoniae): > 64 µM"
